{"source": "patent US4247687A", "about": "“Aminoglycoside antibiotic derivatives and process for their preparation” (Farmitalia Carlo Erba S.p.A., priority 1979, dated 1981)", "assay_type_in_all_cases": "cell-based", "key": {"P. mirabilis V 15": {"test_system": "P. mirabilis V 15", "test": "Conventional agar dilution, MIC", "settings": "Proteus mirabilis, V15", "procedure": "(§1) The antibacterial activity is determined by the conventional agar dilution method, and the minimal inhibitory concentration (MIC) is expressed in mcg/ml."}, "[1]": {"test_system": "Pseudomonas aeruginosa 9229", "test": "Conventional agar dilution, MIC", "procedure": "as §1"}, "[2]": {"test_system": "Staphylococcus aureus 209 P", "test": "Conventional agar dilution, MIC", "procedure": "as §1"}, "P. aeruginosa 47823": {"test_system": "P. aeruginosa 47823", "test": "Conventional agar dilution, MIC", "settings": "Pseudomonas aeruginosa", "procedure": "as §1"}, "P. aeruginosa 53825": {"test_system": "P. aeruginosa 53825", "test": "Conventional agar dilution, MIC", "settings": "Pseudomonas aeruginosa", "procedure": "as §1"}, "[3]": {"test_system": "E. coli K 12 R 112 (NPT I)", "test": "Conventional agar dilution, MIC", "settings": "Escherichia coli", "procedure": "as §1"}, "[4]": {"test_system": "E. coli K 12 R 118 (NPT II)", "test": "Conventional agar dilution, MIC", "settings": "Escherichia coli", "procedure": "as §1"}, "E. coli K 12 R 55 (GNT)": {"test_system": "E. coli K 12 R 55 (GNT)", "test": "Conventional agar dilution, MIC", "settings": "Escherichia coli", "procedure": "as §1"}, "Proteus vulgaris": {"test_system": "Proteus vulgaris", "test": "Conventional agar dilution, MIC", "procedure": "as §1"}, "P. aeruginosa 19660": {"test_system": "P. aeruginosa 19660", "test": "Conventional agar dilution, MIC", "settings": "Pseudomonas aeruginosa", "procedure": "as §1"}, "P. sp. V 16": {"test_system": "P. sp. V 16", "test": "Conventional agar dilution, MIC", "procedure": "as §1"}, "P. aeruginosa 4": {"test_system": "P. aeruginosa 4", "test": "Conventional agar dilution, MIC", "settings": "Pseudomonas aeruginosa", "procedure": "as §1"}, "P. aeruginosa 5": {"test_system": "P. aeruginosa 5", "test": "Conventional agar dilution, MIC", "settings": "Pseudomonas aeruginosa", "procedure": "as §1"}, "P. aeruginosa B": {"test_system": "P. aeruginosa B", "test": "Conventional agar dilution, MIC", "settings": "Pseudomonas aeruginosa", "procedure": "as §1"}, "Proteus mirabilis 525": {"test_system": "Proteus mirabilis 525", "test": "Conventional agar dilution, MIC", "procedure": "as §1"}, "Escherichia coli K 12": {"test_system": "Escherichia coli K 12", "test": "Conventional agar dilution, MIC", "settings": "K12", "procedure": "as §1"}, "P. aeruginosa 53585": {"test_system": "P. aeruginosa 53585", "test": "Conventional agar dilution, MIC", "settings": "Pseudomonas aeruginosa", "procedure": "as §1"}, "P. aeruginosa 6": {"test_system": "P. aeruginosa 6", "test": "Conventional agar dilution, MIC", "settings": "Pseudomonas aeruginosa", "procedure": "as §1"}, "bacterial strains": {"test_system": "bacterial strains", "test": "Antibacterial \"in vitro\" activity, conventional agar dilution (overall)", "settings": "in words, compared with neomycin B and paromomycin (1)", "procedure": "as §1"}}, "note": "Read-outs that look alike come from different tables or passages of the source."}
{"smiles": "NC[C@@H]1O[C@H](O[C@H]2[C@@H](O)[C@H](O[C@@H]3[C@@H](O)[C@H](N)C[C@H](N)[C@H]3O[C@H]3O[C@H](CN)[C@@H](O)[C@H](O)[C@H]3N)O[C@@H]2CO)[C@H](N)[C@@H](O)[C@@H]1O", "note": "[Neomycin B, neomycin B]", "values": [{"measurement": "MIC", "setting": "P. mirabilis V 15", "value": 25, "unit": "µg/mL"}, {"measurement": "MIC", "setting": "[1]; Pseudomonas aeruginosa, 9229", "value": 100, "unit": "µg/mL"}, {"measurement": "MIC", "setting": "[2]; Staphylococcus aureus, 209P", "value": 1.55, "unit": "µg/mL"}, {"measurement": "MIC", "setting": "P. aeruginosa 47823; 47823", "value": "> 100", "unit": "µg/mL"}, {"measurement": "MIC", "setting": "P. aeruginosa 53825; 53825", "value": "> 100", "unit": "µg/mL"}, {"measurement": "MIC", "setting": "[3]", "value": "> 200", "unit": "µg/mL"}, {"measurement": "MIC", "setting": "[4]", "value": 200, "unit": "µg/mL"}, {"measurement": "MIC", "setting": "E. coli K 12 R 55 (GNT)", "value": 6.25, "unit": "µg/mL"}, {"measurement": "MIC", "setting": "Proteus vulgaris", "value": 25, "unit": "µg/mL"}, {"measurement": "MIC", "setting": "P. aeruginosa 19660; 19660", "value": 50, "unit": "µg/mL"}, {"measurement": "MIC", "setting": "P. sp. V 16", "value": "> 100", "unit": "µg/mL"}, {"measurement": "MIC", "setting": "P. aeruginosa 4; 4", "value": 25, "unit": "µg/mL"}, {"measurement": "MIC", "setting": "P. aeruginosa 5; 5", "value": 50, "unit": "µg/mL"}, {"measurement": "MIC", "setting": "P. aeruginosa B", "value": "> 100", "unit": "µg/mL"}, {"measurement": "MIC", "setting": "Proteus mirabilis 525; Proteus mirabilis, 525", "value": 12.5, "unit": "µg/mL"}, {"measurement": "MIC", "setting": "Escherichia coli K 12; Escherichia coli", "value": 6.25, "unit": "µg/mL"}, {"measurement": "MIC", "setting": "P. aeruginosa 53585; 53585", "value": "> 100", "unit": "µg/mL"}, {"measurement": "MIC", "setting": "P. aeruginosa 6; 6", "value": 25, "unit": "µg/mL"}]}
{"smiles": "NC[C@@H]1O[C@H](O[C@H]2[C@@H](O)[C@H](O[C@@H]3[C@@H](O)[C@H](N)C[C@H](N)[C@H]3O[C@H]3O[C@H](CO)[C@@H](O)[C@H](O)[C@H]3N)O[C@@H]2CO)[C@H](N)[C@@H](O)[C@@H]1O", "note": "[Paromomycin (1), paromomycin]", "values": [{"measurement": "MIC", "setting": "P. mirabilis V 15", "value": 25, "unit": "µg/mL"}, {"measurement": "MIC", "setting": "[1]; Pseudomonas aeruginosa, 9229", "value": "> 100", "unit": "µg/mL"}, {"measurement": "MIC", "setting": "[2]; Staphylococcus aureus, 209P", "value": 1.55, "unit": "µg/mL"}, {"measurement": "MIC", "setting": "P. aeruginosa 47823; 47823", "value": "> 100", "unit": "µg/mL"}, {"measurement": "MIC", "setting": "P. aeruginosa 53825; 53825", "value": "> 100", "unit": "µg/mL"}, {"measurement": "MIC", "setting": "[3]", "value": "> 200", "unit": "µg/mL"}, {"measurement": "MIC", "setting": "[4]", "value": 200, "unit": "µg/mL"}, {"measurement": "MIC", "setting": "E. coli K 12 R 55 (GNT)", "value": 12.5, "unit": "µg/mL"}, {"measurement": "MIC", "setting": "Proteus vulgaris", "value": 50, "unit": "µg/mL"}, {"measurement": "MIC", "setting": "P. aeruginosa 19660; 19660", "value": "> 100", "unit": "µg/mL"}, {"measurement": "MIC", "setting": "P. sp. V 16", "value": "> 100", "unit": "µg/mL"}, {"measurement": "MIC", "setting": "P. aeruginosa 4; 4", "value": "> 100", "unit": "µg/mL"}, {"measurement": "MIC", "setting": "P. aeruginosa 5; 5", "value": "> 100", "unit": "µg/mL"}, {"measurement": "MIC", "setting": "P. aeruginosa B", "value": "> 100", "unit": "µg/mL"}, {"measurement": "MIC", "setting": "Proteus mirabilis 525; Proteus mirabilis, 525", "value": 25, "unit": "µg/mL"}, {"measurement": "MIC", "setting": "Escherichia coli K 12; Escherichia coli", "value": 12.5, "unit": "µg/mL"}, {"measurement": "MIC", "setting": "P. aeruginosa 53585; 53585", "value": "> 100", "unit": "µg/mL"}, {"measurement": "MIC", "setting": "P. aeruginosa 6; 6", "value": "> 100", "unit": "µg/mL"}]}
{"smiles": "NC[C@@H]1C[C@H](O)[C@@H](N)[C@@H](O[C@H]2[C@H](O[C@@H]3O[C@H](CO)[C@@H](O[C@H]4O[C@@H](CN)[C@@H](O)[C@H](O)[C@H]4N)[C@H]3O)[C@@H](O)[C@H](N)C[C@@H]2N)O1", "note": "[compound 8, 4'-deoxyneomycin B]", "values": [{"measurement": "MIC", "setting": "P. mirabilis V 15; P. mirabilis V 15, agar dilution, read-out: MIC", "value": 12.5, "unit": "µg/mL"}, {"measurement": "MIC", "setting": "[1]; Pseudomonas aeruginosa 9229, agar dilution, read-out: MIC", "value": 25, "unit": "µg/mL"}, {"measurement": "MIC", "setting": "[2]; Staphylococcus aureus 209 P, agar dilution, read-out: MIC", "value": 0.77, "unit": "µg/mL"}, {"measurement": "MIC", "setting": "P. aeruginosa 47823; P. aeruginosa 47823, agar dilution, read-out: MIC", "value": 12.5, "unit": "µg/mL"}, {"measurement": "MIC", "setting": "P. aeruginosa 53825; P. aeruginosa 53825, agar dilution, read-out: MIC", "value": 50, "unit": "µg/mL"}, {"measurement": "MIC", "setting": "[3]", "value": "> 200", "unit": "µg/mL"}, {"measurement": "MIC", "setting": "[4]", "value": 25, "unit": "µg/mL"}, {"measurement": "MIC", "setting": "E. coli K 12 R 55 (GNT)", "value": 3.12, "unit": "µg/mL"}, {"measurement": "MIC", "setting": "Proteus vulgaris; agar dilution, read-out: MIC", "value": 12.5, "unit": "µg/mL"}, {"measurement": "MIC", "setting": "P. aeruginosa 19660; P. aeruginosa 19660, agar dilution, read-out: MIC", "value": 25, "unit": "µg/mL"}, {"measurement": "MIC", "setting": "P. sp. V 16", "value": "> 100", "unit": "µg/mL"}, {"measurement": "MIC", "setting": "P. aeruginosa 4; P. aeruginosa 4, agar dilution, read-out: MIC", "value": 12.5, "unit": "µg/mL"}, {"measurement": "MIC", "setting": "P. aeruginosa 5; P. aeruginosa 5, agar dilution, read-out: MIC", "value": 25, "unit": "µg/mL"}, {"measurement": "MIC", "setting": "P. aeruginosa B; P. aeruginosa B, agar dilution, read-out: MIC", "value": 25, "unit": "µg/mL"}, {"measurement": "MIC", "setting": "Proteus mirabilis 525; Proteus mirabilis 525, agar dilution, read-out: MIC", "value": 6.2, "unit": "µg/mL"}, {"measurement": "MIC", "setting": "Escherichia coli K 12; Escherichia coli K 12, agar dilution, read-out: MIC", "value": 3.12, "unit": "µg/mL"}, {"measurement": "MIC", "setting": "P. aeruginosa 53585; P. aeruginosa 53585, agar dilution, read-out: MIC", "value": 25, "unit": "µg/mL"}, {"measurement": "MIC", "setting": "P. aeruginosa 6; P. aeruginosa 6, agar dilution, read-out: MIC", "value": 12.5, "unit": "µg/mL"}, {"measurement": "antibacterial \"in vitro\" activity", "setting": "bacterial strains; listed as 4'-Deoxy-neomycin B (8)", "value": "higher and broader when compared with those of neomycin B and paromomycin (1)"}, {"measurement": "antibacterial \"in vitro\" activity", "setting": "bacterial strains; listed as 4'-deoxy-neomycin B (8)", "value": "higher and broader when compared with that of neomycin B"}]}
